Results reported in article PMC5834442, “Identifying inhibitors of the Leishmania inositol phosphorylceramide synthase with antiprotozoal activity using a yeast-based assay and ultra-high throughput screening platform” (Scientific Reports, 2018).
Read-outs that look alike come from different tables or passages of the source.

Assays:
[1] = system: L. donovani (MHOM/SD/62/1S-CL2D, LdBOB) axenic amastigotes; assay: Leishmania donovani axenic amastigote dose response assay (resazurin); format: cell-based; conditions: -logIC50 mol against L. donovani (LdBOB) axenic amastigotes, read-out: pIC50 Axenic (converted)
HepG2 cells = assay: Mammalian cell cytotoxicity assay (CellTiter-Glo); format: cell-based, human; conditions: for IC50: Homo sapiens, -logIC50 mol against HepG2, read-out: PIC50 HepG2 (converted)
[2] = selectivity: pIC50 axenic minus pIC50 HepG2

Compound	IC50 [1]	IC50 (HepG2 cells)	pSI v HepG2 (HepG2 cells; [2])	pSI v HepG2 (HepG2 cells)
Cc1[nH]c2ccccc2c(=O)c1Cc1ccc(OC(F)(F)F)cc1 [4598W 92C*A]	1.55 µM	95.5 µM	1.79	–
COc1ccc(Cl)cc1NC(=O)Nc1cccc(Br)c1 [C2180/12/1]	4.79 µM	66.1 µM	1.14	–
OC(Cn1ccnc1)(c1ccc(Cl)cc1Cl)C1CCCCC1 (stereo not drawn) [CJL/479/3]	5.75 µM	45.7 µM	0.90	–
O=S(=O)(Nc1cccc(F)c1CN1CCC(F)(F)C1)c1ccc(Cl)c(Cl)c1 [DS105792-004A6B1]	9.12 µM	47.9 µM	0.72	–
Cc1ccc(-c2cnc(N)c(-c3nc4ccc(F)cc4[nH]3)c2)cc1 [HL209813-065A1]	7.59 µM	75.9 µM	1.00	–
C=CCOc1ccc(-c2nc(-c3ccc4c(c3)CCNCC4)no2)cc1Cl.Cl [N11110-83-1]	7.94 µM	4.37 µM	-0.26	–
O=C(Nc1cccc(Cl)c1)Nc1ccc2nnsc2c1 [SC/98031]	6.61 µM	17.8 µM	0.43	–
Oc1ccc(-c2nccc(-c3ccc(Cl)cc3)n2)cc1 [SC/101464]	2.75 µM	> 100 µM	1.56	–
Cc1cc([N+](=O)[O-])ccc1NC(=O)Nc1cccc(F)c1 [SC/109683]	3.8 µM	13.2 µM	–	0.54
Cc1ccc(-c2ccnc(-c3ccc(O)cc3)n2)cc1 [SC/128042]	6.61 µM	> 100 µM	1.18	–
O=C(c1cccc(F)c1)c1coc2ccc(Br)cc2c1=O [ST/472875]	2.29 µM	63.1 µM	1.44	–
O=c1nc(SCc2ccccc2F)c2c([nH]1)CCCC2 [ST/915519]	> 50 µM	–	–	–
Fc1ccc(CNc2ncc(-c3ccncc3)c(-c3ccoc3)n2)cc1 [ST/945994]	> 50 µM	–	–	–
O=C(Nc1ccon1)c1cc2c(s1)CCCCCC2 [ST/1100321]	19.5 µM	–	–	–
CCCCCc1c(C)nc(Nc2ccccc2)[nH]c1=O [ST/1105254]	17.4 µM	–	–	–
COc1ccc(Br)cc1C(=O)Nc1cc(Cl)ccc1O [ST/1108634]	16.6 µM	–	–	–
CCc1noc2nc(C)nc(NC3CCCCCC3)c12 [ST/1113587]	46.8 µM	–	–	–
Cc1cccn2c(=O)c(C(=O)NCc3ccncc3)c(O)nc12 [ST/1129403]	> 50 µM	–	–	–
COCC(C)NC(=O)c1c(O)nc2c(C)cccn2c1=O (stereo not drawn) [ST/1131522]	> 50 µM	–	–	–
CCc1ccccc1Oc1cncc(-c2nc3ccccc3[nH]2)n1 [ST/1138848]	> 50 µM	–	–	–

Compound	IC50 [1]	IC50 (HepG2 cells)	pSI v HepG2 (HepG2 cells; [2])	pSI v HepG2 (HepG2 cells)
COc1cccc(C(=O)Nc2nc(-c3cccs3)ns2)c1 [ST/1197587]	21.9 µM	–	–	–
NC(=O)c1cc(-c2csc(-c3ccsc3)n2)ccc1O [ST/1241904]	20.9 µM	–	–	–
CNC(=O)CN(C)c1nc(-c2cccs2)nc2sc(C)c(C)c12 [ST/1245806]	> 50 µM	–	–	–
O=c1nc(SCc2ccccc2Cl)c2c([nH]1)CCCC2 [ST/1287093]	> 50 µM	–	–	–
CCOc1ccc(C(C)C)cc1S(=O)(=O)n1ccnc1 [ST/1289929]	10.5 µM	–	–	–
CC(=O)N1N=C(COc2ccccc2Br)OC1C=Cc1ccccc1 (stereo not drawn) [ST/1451035]	> 50 µM	–	–	–
CC(=O)N1N=C(COc2ccc(Cl)c(C)c2)OC1c1ccc(C)o1 (stereo not drawn) [ST/1451045]	19.1 µM	–	–	–
CC(=O)N1N=C(c2ccccc2Cl)OC1COc1ccc(Cl)cc1 (stereo not drawn) [ST/1451125]	15.8 µM	–	–	–
N#Cc1ccc(NCCOc2ccc3ccccc3c2)nc1 [ST/1543199]	> 50 µM	–	–	–
O=C1CCc2cc(-c3csc(-c4ccsc4)n3)ccc2N1 [ST/1544102]	> 50 µM	–	–	–
Cc1ccc(Nc2nc(C(N)=O)c(NC(=O)C3CCC3)s2)cc1 [ST/1548033]	> 50 µM	–	–	–
CCn1cc(C(=O)O)c(=O)c2cc(F)ccc21 [ST/1766829]	24.5 µM	–	–	–
c1ccc2oc(-c3ccnc4nncn34)cc2c1 [ST/1803771]	> 50 µM	–	–	–
N=c1nc2n(c(=N)[nH]1)NC(c1ccc(Cl)cc1)=CS2 [ST/1850161]	47.9 µM	–	–	–
CC(NC(=O)c1c(O)c2sccc2[nH]c1=O)c1ccc(F)cc1 (stereo not drawn) [ST/1962332]	> 50 µM	–	–	–
O=c1c(O)c(-c2ccccc2)oc2cc(O)cc(O)c12 [ST/2097267]	20.4 µM	–	–	–
O[C@@]1(c2ccc(F)cc2)CCCC[C@@H]1n1cncn1 [ST/2183803]	> 50 µM	–	–	–
CCc1ccc2c(c1)c(=O)c(C(=O)O)cn2CC(F)(F)F [ST/2184718]	36.3 µM	–	–	–
Fc1ccc(-c2nn3c(OCC(F)(F)F)cccc3c2-c2ccncc2)cc1 [U12546/102/3]	13.5 µM	–	–	–
Cc1ccc(C2=NN(S(=O)(=O)c3cc(Cl)sc3Cl)C(C)C2)cc1 (stereo not drawn) [U20197/52/63]	32.4 µM	–	–	–

Continued, in another order:

IC50 [1]	Compound	IC50 (HepG2 cells)	pSI v HepG2 (HepG2 cells; [2])	pSI v HepG2 (HepG2 cells)
1.17 µM	Cc1[nH]c2ccccc2c(=O)c1Cc1ccc(C(F)(F)F)cc1 [4671W 92C*A]	> 100 µM	1.93	–
5.89 µM	COc1ccc(N(Cc2ccc(-c3ccccc3)o2)S(=O)(=O)c2ccccn2)cc1 [AD102638-200A3B22]	61.7 µM	1.02	–
1.55 µM	Cc1nc(-c2ccccc2)c(-c2ccnc(Nc3cc(S(N)(=O)=O)ccc3C)n2)s1 [N6896-93-B1]	> 100 µM	1.81	–
0.661 µM	CNS(=O)(=O)c1ccc(C)c(Nc2nccc(-c3sc(C)nc3-c3ccccc3)n2)c1 [N6896-96-B1]	38 µM	1.76	–
5.25 µM	O=C(Nc1cc(C(F)(F)F)ccc1Cl)c1ccccc1O [SC/67526]	15.1 µM	0.46	–
7.08 µM	Cc1ccc(S(=O)(=O)Nc2cc(Cl)c(Cl)cc2Cl)cc1 [ST/411835]	> 100 µM	1.15	–
38.9 µM	CNS(=O)(=O)c1ccc(NC(=O)c2csc(C)c2-c2ccccc2)cc1 [ST/937316]	–	–	–
> 50 µM	CN1CCN(CC(=O)Nc2ccc3c(c2)CCC3)CC1c1ccccc1 (stereo not drawn) [ST/961462]	–	–	–
> 50 µM	CN1CCN(CC(=O)Nc2ccc(C(F)(F)F)cc2)CC1c1ccccc1 (stereo not drawn) [ST/961463]	–	–	–
12.9 µM	O=C(O)Cc1c(-c2cccs2)nc2ccccc2c1-c1ccccc1 [ST/1080669]	–	–	–
> 50 µM	O=C(Nc1ccc(NC(=O)c2cccs2)cc1Cl)c1ccccc1 [ST/1125044]	–	–	–
30.9 µM	Cc1cccc(C(=O)Nc2nc(-c3cccs3)ns2)c1 [ST/1197585]	–	–	–
11.5 µM	O=C(NCc1ccc2c(c1)OCO2)c1ccccc1NS(=O)(=O)c1cccs1 [ST/1217724]	–	–	–
34.7 µM	Cc1oc(-c2ccc(Cl)cc2)cc1C(=O)NCC(=O)c1cccs1 [ST/1260077]	–	–	–
33.1 µM	COc1ccccc1-c1nc(-c2ccc(O)c(C(N)=O)c2)cs1 [ST/1261284]	–	–	–
21.9 µM	Cc1ccccc1S(=O)(=O)N1CCN(c2nccc(-c3cccs3)n2)CC1 [ST/1415177]	–	–	–
39.8 µM	O=S(=O)(c1ccccc1)N1CCN(c2nccc(-c3cccs3)n2)CC1 [ST/1415180]	–	–	–
10.5 µM	O=C(Nc1ccc(F)c(Cl)c1)c1cc(-c2ccc(O)cc2)on1 [ST/1440432]	–	–	–
> 50 µM	CCc1ccccc1NC(=O)c1cc(-c2ccc(Cl)cc2)oc1C [ST/1545686]	–	–	–
> 50 µM	O=C(c1ccc(Cl)cc1)N1CCCn2c1nc1ccccc1c2=O [ST/1938375]	–	–	–
37.2 µM	Nc1ncc(-c2ccccc2)cc1-c1nc2ccccc2[nH]1 [U18123/163/3]	–	–	–
> 50 µM	Cc1ccc(C2=NN(S(=O)(=O)c3ccc(Cl)cc3F)C(C)C2)cc1 (stereo not drawn) [U20197/52/94]	–	–	–
